Measured values taken from the supplement of paper PMC10307832.

Assays:
Assay in all cases: relative viability (nuclei count vs DMSO), 5 days (fraction); higher = more cells survive
A-427 = system: A-427
Outline: (§1)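 After 5 days of treatment, lung cancer cells in 1536-well plates were fixed and stained in a single step (final 0.05% Triton X-100, 1% formaldehyde, 1 ug/ml Hoechst) and their nuclei counted on 4× images. Treatment had been applied by pin tool the day after seeding as one drug alone or as a fixed anchor-drug dose with five library-drug doses (not always all listed) in √10 steps. Relative viability is the nuclei count of treated wells divided by that of vehicle wells, and values are medians of duplicate plates.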

ABC-1 = system: ABC-1
Outline: as §1

EMC-BAC-2 = system: EMC-BAC-2
Outline: as §1

HARA = system: HARA
Outline: as §1

HOP-62 = system: HOP-62
Outline: as §1

LK-2 = system: LK-2
Outline: as §1

LXF-289 = system: LXF-289
Outline: as §1

NCI-H1792 = system: NCI-H1792
Outline: as §1

NCI-H1944 = system: NCI-H1944
Outline: as §1

NCI-H1993 = system: NCI-H1993
Outline: as §1

NCI-H2009 = system: NCI-H2009
Outline: as §1

NCI-H2170 = system: NCI-H2170
Outline: as §1

NCI-H2228 = system: NCI-H2228
Outline: as §1

NCI-H3122 = system: NCI-H3122
Outline: as §1

NCI-H322M = system: NCI-H322M
Outline: as §1

NCI-H522 = system: NCI-H522
Outline: as §1

NCI-H596 = system: NCI-H596
Outline: as §1

NCI-H727 = system: NCI-H727
Outline: as §1

PC-3 [JPC-3] = system: PC-3 [JPC-3]
Outline: as §1

SK-MES-1 = system: SK-MES-1
Outline: as §1

SW 1573 = system: SW 1573
Outline: as §1

SW 900 = system: SW 900
Outline: as §1

## Nc1ccn([C@@H]2O[C@H](CO)[C@@H](O)[C@@H]2O)c(=O)n1 [Cytarabine] + COc1cccc2cc(-c3nc([C@H]4CC[C@H](C(=O)O)CC4)n4ncnc(N)c34)[nH]c12 [OSI-027] (partner 0.5 µM)
A-427; first compound 0.005 µM
  relative viability: 0.4
A-427; first compound 0.01581 µM
  relative viability: 0.259
A-427; first compound 0.05 µM
  relative viability: 0.275
A-427; first compound 0.1581 µM
  relative viability: 0.16
A-427; first compound 0.5 µM
  relative viability: 0.177
ABC-1; first compound 0.005 µM
  relative viability: 0.41
ABC-1; first compound 0.01581 µM
  relative viability: 0.458
ABC-1; first compound 0.05 µM
  relative viability: 0.463
ABC-1; first compound 0.1581 µM
  relative viability: 0.379
ABC-1; first compound 0.5 µM
  relative viability: 0.259
EMC-BAC-2; first compound 0.005 µM
  relative viability: 0.413
EMC-BAC-2; first compound 0.01581 µM
  relative viability: 0.353
EMC-BAC-2; first compound 0.05 µM
  relative viability: 0.312
EMC-BAC-2; first compound 0.1581 µM
  relative viability: 0.27
EMC-BAC-2; first compound 0.5 µM
  relative viability: 0.22
HARA; first compound 0.005 µM
  relative viability: 0.438
HARA; first compound 0.01581 µM
  relative viability: 0.236
HARA; first compound 0.05 µM
  relative viability: 0.149
HARA; first compound 0.1581 µM
  relative viability: 0.107
HARA; first compound 0.5 µM
  relative viability: 0.101
HOP-62; first compound 0.005 µM
  relative viability: 0.554
HOP-62; first compound 0.01581 µM
  relative viability: 0.474
HOP-62; first compound 0.05 µM
  relative viability: 0.458
HOP-62; first compound 0.1581 µM
  relative viability: 0.141
HOP-62; first compound 0.5 µM
  relative viability: 0.12
LK-2; first compound 0.005 µM
  relative viability: 0.194
LK-2; first compound 0.01581 µM
  relative viability: 0.175
LK-2; first compound 0.05 µM
  relative viability: 0.205
LK-2; first compound 0.1581 µM
  relative viability: 0.156
LK-2; first compound 0.5 µM
  relative viability: 0.154
LXF-289; first compound 0.005 µM
  relative viability: 0.671
LXF-289; first compound 0.01581 µM
  relative viability: 0.634
LXF-289; first compound 0.05 µM
  relative viability: 0.419
LXF-289; first compound 0.1581 µM
  relative viability: 0.237
LXF-289; first compound 0.5 µM
  relative viability: 0.113
NCI-H1792; first compound 0.005 µM
  relative viability: 0.757
NCI-H1792; first compound 0.01581 µM
  relative viability: 0.664
NCI-H1792; first compound 0.05 µM
  relative viability: 0.738
NCI-H1792; first compound 0.1581 µM
  relative viability: 0.615
NCI-H1792; first compound 0.5 µM
  relative viability: 0.427
NCI-H1944; first compound 0.005 µM
  relative viability: 0.313
NCI-H1944; first compound 0.01581 µM
  relative viability: 0.239
NCI-H1944; first compound 0.05 µM
  relative viability: 0.214
NCI-H1944; first compound 0.1581 µM
  relative viability: 0.155
NCI-H1944; first compound 0.5 µM
  relative viability: 0.133
NCI-H1993; first compound 0.005 µM
  relative viability: 0.599
NCI-H1993; first compound 0.01581 µM
  relative viability: 0.56
NCI-H1993; first compound 0.05 µM
  relative viability: 0.529
NCI-H1993; first compound 0.1581 µM
  relative viability: 0.484
NCI-H1993; first compound 0.5 µM
  relative viability: 0.498
NCI-H2009; first compound 0.005 µM
  relative viability: 0.656
NCI-H2009; first compound 0.01581 µM
  relative viability: 0.642
NCI-H2009; first compound 0.05 µM
  relative viability: 0.621
NCI-H2009; first compound 0.1581 µM
  relative viability: 0.454
NCI-H2009; first compound 0.5 µM
  relative viability: 0.29
NCI-H2170; first compound 0.005 µM
  relative viability: 0.543
NCI-H2170; first compound 0.01581 µM
  relative viability: 0.513
NCI-H2170; first compound 0.05 µM
  relative viability: 0.387
NCI-H2170; first compound 0.1581 µM
  relative viability: 0.303
NCI-H2170; first compound 0.5 µM
  relative viability: 0.208
NCI-H2228; first compound 0.005 µM
  relative viability: 0.404
NCI-H2228; first compound 0.01581 µM
  relative viability: 0.209
NCI-H2228; first compound 0.05 µM
  relative viability: 0.244
NCI-H2228; first compound 0.1581 µM
  relative viability: 0.097
NCI-H2228; first compound 0.5 µM
  relative viability: 0.0984
NCI-H3122; first compound 0.005 µM
  relative viability: 0.953
NCI-H3122; first compound 0.01581 µM
  relative viability: 0.873
NCI-H3122; first compound 0.05 µM
  relative viability: 0.811
NCI-H3122; first compound 0.1581 µM
  relative viability: 0.461
NCI-H3122; first compound 0.5 µM
  relative viability: 0.125
NCI-H322M; first compound 0.005 µM
  relative viability: 0.455
NCI-H322M; first compound 0.01581 µM
  relative viability: 0.392
NCI-H322M; first compound 0.05 µM
  relative viability: 0.325
NCI-H322M; first compound 0.1581 µM
  relative viability: 0.377
NCI-H322M; first compound 0.5 µM
  relative viability: 0.269
NCI-H522; first compound 0.005 µM
  relative viability: 0.717
NCI-H522; first compound 0.01581 µM
  relative viability: 0.599
NCI-H522; first compound 0.05 µM
  relative viability: 0.395
NCI-H522; first compound 0.1581 µM
  relative viability: 0.48
NCI-H522; first compound 0.5 µM
  relative viability: 0.539
NCI-H596; first compound 0.005 µM
  relative viability: 0.682
NCI-H596; first compound 0.01581 µM
  relative viability: 0.702
NCI-H596; first compound 0.05 µM
  relative viability: 0.592
NCI-H596; first compound 0.1581 µM
  relative viability: 0.418
NCI-H596; first compound 0.5 µM
  relative viability: 0.317
NCI-H727; first compound 0.005 µM
  relative viability: 0.589
NCI-H727; first compound 0.01581 µM
  relative viability: 0.558
NCI-H727; first compound 0.05 µM
  relative viability: 0.491
NCI-H727; first compound 0.1581 µM
  relative viability: 0.38
NCI-H727; first compound 0.5 µM
  relative viability: 0.347
PC-3 [JPC-3]; first compound 0.005 µM
  relative viability: 0.607
PC-3 [JPC-3]; first compound 0.01581 µM
  relative viability: 0.721
PC-3 [JPC-3]; first compound 0.05 µM
  relative viability: 0.727
PC-3 [JPC-3]; first compound 0.1581 µM
  relative viability: 0.499
PC-3 [JPC-3]; first compound 0.5 µM
  relative viability: 0.454
SK-MES-1; first compound 0.005 µM
  relative viability: 0.343
SK-MES-1; first compound 0.01581 µM
  relative viability: 0.282
SK-MES-1; first compound 0.05 µM
  relative viability: 0.18
SK-MES-1; first compound 0.1581 µM
  relative viability: 0.297
SK-MES-1; first compound 0.5 µM
  relative viability: 0.267
SW 1573; first compound 0.005 µM
  relative viability: 0.735
SW 1573; first compound 0.01581 µM
  relative viability: 0.49
SW 1573; first compound 0.05 µM
  relative viability: 0.466
SW 1573; first compound 0.1581 µM
  relative viability: 0.131
SW 1573; first compound 0.5 µM
  relative viability: 0.0871
SW 900; first compound 0.005 µM
  relative viability: 0.396
SW 900; first compound 0.01581 µM
  relative viability: 0.34
SW 900; first compound 0.05 µM
  relative viability: 0.335
SW 900; first compound 0.1581 µM
  relative viability: 0.145
SW 900; first compound 0.5 µM
  relative viability: 0.136
